According to patent US8193373B2, “Therapeutic compounds” (Allergan, Inc., priority 2006, dated 2012):

How the values were obtained:
[1] = molecular target: T1, EP2 receptor (Homo sapiens, UniProt P43116); assay: cAMP assay at the EP2 receptor (assays described in WO 2005/044501); assay type: cell-based
Source text: (§1) The compound above has the following activity at the EP2 receptor according to the assays described in WO 2005/044501.

[2] = molecular target: T1, EP2 receptor; assay: Binding at the EP2 receptor (assays described in WO 2005/044501)
Source text: as §1

T1 sequence (P43116 whole entry): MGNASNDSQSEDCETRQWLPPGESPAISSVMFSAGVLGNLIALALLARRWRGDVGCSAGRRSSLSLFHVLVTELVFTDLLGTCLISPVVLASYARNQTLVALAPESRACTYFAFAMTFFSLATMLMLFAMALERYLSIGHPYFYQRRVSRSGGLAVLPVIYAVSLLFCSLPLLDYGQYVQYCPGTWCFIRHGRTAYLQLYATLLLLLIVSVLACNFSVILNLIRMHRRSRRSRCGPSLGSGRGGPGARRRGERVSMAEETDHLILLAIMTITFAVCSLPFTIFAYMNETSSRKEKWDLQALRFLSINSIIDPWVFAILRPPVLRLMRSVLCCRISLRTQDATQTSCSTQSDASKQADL

EC50 [1]: 0.003 µM
Ki [2]: 0.116 µM
Compound: N#C[C@@H]1C[C@@H](O)[C@H](/C=C/CC(O)C2(Cc3ccc(Cl)s3)CCC2)[C@H]1C/C=C\CCCC(=O)O (stereo partly drawn) [(Z)-7-((1S,2R,3R,5R)-2-((E)-4-(1-((5-chlorothiophen-2-yl)methyl)cyclobutyl)-4-hydroxybut-1-enyl)-5-cyano-3-hydroxycyclopentyl)hept-5-enoic acid]
